Laboratory results: patent publication US11053175B2, “Thioether compounds as nitrification inhibitors” (BASF SE, priority 2015, dated 2021)

What follows are compounds tested on nitrification in soil (assay: Inhibition of nitrification in soil (48 well plate, ammonium sulfate, colour reaction read at 540 nm)). Conditions: dose of 3% a.i./NH, best value obtained, read-out: IN (best inhibition value, inhibition of nitrification = 100 - % activity compared to control).
Assay type: cell-based

Question: For `C#CCSc1nnc(N)s1` [Compound 2-8], which inhibition at 3 % strength is on record?
Answer: Its inhibition at 3 % strength is 38%.

Question: `C#CCSCc1ccccc1` [Compound 2-7] was tested. Which inhibition at 3 % strength did it give?
Answer: The inhibition at 3 % strength was 28%.

Question: With `C#CC[S+]([O-])Cc1ccc(OC)cc1` (stereo not shown) [Compound 2-3] as the compound, how does the inhibition at 3 % strength read?
Answer: Its inhibition at 3 % strength is 23%.

Question: With `C#CCS(=O)(=O)Cc1ccccc1` [Compound 2-4] as the compound, how does the inhibition at 3 % strength read?
Answer: The inhibition at 3 % strength was 23%.

Question: With `C#CCSc1ccccc1` [Compound 2-9] as the compound, how does the inhibition at 3 % strength read?
Answer: The inhibition at 3 % strength was 48%.

Question: For `C#CCSCc1ccc(Cl)cc1` [Compound 2-6], which inhibition at 3 % strength is on record?
Answer: Its inhibition at 3 % strength is 28%.

Question: For `C#CCSCC#C` [Compound 2-10], which inhibition at 3 % strength is on record?
Answer: Its inhibition at 3 % strength is 97%.

Question: With `C#CC[S+]([O-])Cc1ccc(Cl)cc1` (stereo not shown) [Compound 2-5] as the compound, how does the inhibition at 3 % strength read?
Answer: The inhibition at 3 % strength was 24%.

Question: With `C#CCS/C(N)=N\N=C\c1ccc(N(C)C)cc1` [Compound 2-2] as the compound, how does the inhibition at 3 % strength read?
Answer: The inhibition at 3 % strength was 20%.

Question: Which inhibition at 3 % strength does the source give for `C#CCSc1sc2ccccc2[n+]1C` [Compound 2-1] here?
Answer: Its inhibition at 3 % strength is 20%.

These compounds were tested on nitrification in soil in the same assay as above. Conditions: 72 h, dose of 10 ppm; soil, up to 72 hrs at room temperature; control DMSO only; best value obtained; read-out: IN (best inhibition value, inhibition of nitrification = 100 - % activity compared to control).
Assay type: cell-based
Experimental: The compounds of the invention have been tested as follows in terms of the inhibition of nitrification: Soil was sampled fresh from a field (e.g. Limburgerhof), dried and sieved through a 500 μm sieve. Approximately 200 mg of soil were placed into each well of a 48 well plate. Compounds, or DMSO alone, were added at a concentration of 10 ppm, dissolved in 1% DMSO. 6 μmol ammonium sulfate was added per well as well as 4.8 mg NaClO3.
Subsequently, the samples were incubated at room temperature for up to 72 hrs. After the incubation period 64 mg KCl were added and mixed. 25 μl of the supernatant were placed into a fresh plate and 260 μl of a color reaction solution (from Merck Nr 1.11799.0100) were added.
Measurements were taken with a Tecan plate Reader at 540 nm wavelength.
Inhibition is calculated as x=% activity compared to control, and converted to 100-x to give the value of inhibition, rather than activity.

Question: With `C#CCSc1nc2ccsc2c(=O)n1C` [Compound 1-11] as the compound, how does the inhibition at 10 ppm read?
Answer: The inhibition at 10 ppm was 55%.

Question: How did the inhibition at 10 ppm turn out when `C#CCSc1nc2c(cc1C#N)CCC2` [Compound 1-12] was run?
Answer: Its inhibition at 10 ppm is 52%.

Question: For `C#CCSc1sc2ccccc2[n+]1C` [Compound 1-18], which inhibition at 10 ppm is on record?
Answer: Its inhibition at 10 ppm is 44%.

Question: `C#CCSC1=NNC(c2ccccn2)S1` (stereo not shown) [Compound 1-17] was tested. Which inhibition at 10 ppm did it give?
Answer: The inhibition at 10 ppm was 46%.

Question: With `C#CCSc1ncccn1` [Compound 1-6] as the compound, how does the inhibition at 10 ppm read?
Answer: The inhibition at 10 ppm was 59%.

Question: `C#CCS/C(N)=N\N=C\c1ccc(OC)cc1` [Compound 1-1] was tested. Which inhibition at 10 ppm did it give?
Answer: The inhibition at 10 ppm was 42%.

Question: For `C#CCS(=O)(=O)CC#C` [Compound 1-8], which inhibition at 10 ppm is on record?
Answer: The inhibition at 10 ppm was 70%.

Question: With `C#CCS/C(C)=N\O` [Compound 1-9] as the compound, how does the inhibition at 10 ppm read?
Answer: The inhibition at 10 ppm was 67%.

Question: How did the inhibition at 10 ppm turn out when `C#CCS/C(N)=N\N=C\c1ccc(F)cc1` [Compound 1-10] was run?
Answer: Its inhibition at 10 ppm is 59%.

Question: Which inhibition at 10 ppm does the source give for `C#CCSC1=NCCN1/N=C/c1ccc(C)cc1` [Compound 1-3] here?
Answer: The inhibition at 10 ppm was 68%.

Question: For `C#CCSc1cnccn1` [Compound 1-21], which inhibition at 10 ppm is on record?
Answer: The inhibition at 10 ppm was 69%.

Question: `C#CC[S+]([O-])CC#C` [Compound 1-7] was tested. Which inhibition at 10 ppm did it give?
Answer: Its inhibition at 10 ppm is 72%.

Question: `C#CCSc1cnc2ccccc2n1` [Compound 1-23] was tested. Which inhibition at 10 ppm did it give?
Answer: Its inhibition at 10 ppm is 33%.

Question: With `C#CCCS/C(C)=N\O` [Compound 1-20] as the compound, how does the inhibition at 10 ppm read?
Answer: The inhibition at 10 ppm was 48%.

Question: Which inhibition at 10 ppm does the source give for `C#CCSc1nnc(S)s1` [Compound 1-13] here?
Answer: Its inhibition at 10 ppm is 51%.

Question: How did the inhibition at 10 ppm turn out when `C#CCSc1nccn1-c1ncc(C(F)(F)F)cc1Cl` [Compound 1-19] was run?
Answer: Its inhibition at 10 ppm is 42%.

Same assay, conditions: dose of 10 ppm; soil, up to 72 hrs at room temperature; control DMSO only; best value obtained

Question: `C#CCSc1sc2ccccc2[n+]1C.[Br-]` [Compound 1-22] was tested. Which “IN (best inhibition value, inhibition of nitrification = 100 - % activity compared to control)” value did it give?
Answer: The value was 42%.

Same assay, conditions: reference compound, same conditions, dose of 10 ppm; read-out: IN (inhibition value, inhibition of nitrification)

Question: `C#Cc1ccccc1` [Phenylacetylene, phenylacetylene, reference compound] was tested. Which inhibition at 10 ppm did it give?
Answer: The inhibition at 10 ppm was 7%.
